From patent US10294202B2, “Pyrrolidinones as herbicides” (FMC Corporation, priority 2013, dated 2019)

Experiments:
lambsquarters = assay: Test C pre-/postemergence herbicide test; format: in vivo, Chenopodium album
Method in brief: (§1)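 Greenhouse pots; formulation = non-phytotoxic solvent mix + surfactant. PRE onto seeds in loam:sand; POST at 1–4 leaves (2–18 cm) in peat moss/vermiculite medium. Read-out: visual % control vs untreated, day 13–15.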

velvetleaf = assay: Test C pre-/postemergence herbicide test; format: in vivo, Abutilon theophrasti
Method in brief: as §1

crabgrass, large = assay: Test C pre-/postemergence herbicide test; format: in vivo, Digitaria sanguinalis
Method in brief: as §1

oat, wild = assay: Test C pre-/postemergence herbicide test; format: in vivo, Avena fatua; conditions: Postemergence
Method in brief: as §1

galium = assay: Test C pre-/postemergence herbicide test; format: in vivo, Galium aparine; conditions: Preemergence
Method in brief: as §1

foxtail, giant = assay: Test C pre-/postemergence herbicide test; format: in vivo, Setaria faberii
Method in brief: as §1

pigweed = assay: Test A pre-/postemergence herbicide test; format: in vivo, Amaranthus retroflexus; conditions: for Plant response rating, Pigweed: 0 to 100 scale
Method in brief: (§2)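 Greenhouse pot test with pre- and postemergence application of surfactant-containing solvent formulations. Postemergence plants were 2–10 cm, one- to two-leaf stage. Response scored visually after ~10 days, 0 (no effect) to 100 (complete control).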

waterhemp = assay: Test C pre-/postemergence herbicide test; format: in vivo, Amaranthus rudis
Method in brief: as §1

barnyardgrass [1] = assay: Test A pre-/postemergence herbicide test; format: in vivo, Echinochloa crus-galli
Method in brief: as §2

morningglory = assay: Test C pre-/postemergence herbicide test; format: in vivo, Ipomoea coccinea
Method in brief: as §1

giant foxtail = assay: Test A pre-/postemergence herbicide test; format: in vivo, Setaria faberii; conditions: for Plant response rating, Foxtail, Giant: 0 to 100 scale
Method in brief: as §2

barnyardgrass [2] = assay: Test C pre-/postemergence herbicide test; format: in vivo, Echinochloa crus-galli
Method in brief: as §1

[3] = Postemergence, 31 g ai/ha, scale 0 to 100 (0 no effect, 100 complete control)
[4] = Postemergence, 62 g ai/ha, scale 0 (no effect) to 100 (complete control)
[5] = Postemergence, 125 g ai/ha, scale 0 to 100 (0 no effect, 100 complete control)
[6] = Postemergence, 250 g ai/ha, scale 0 to 100 (0 no effect, 100 complete control)
[7] = Preemergence, 31 g ai/ha, scale 0 to 100, 0 is no effect and 100 is complete control
[8] = Preemergence, 62 g ai/ha, scale 0 to 100
[9] = Preemergence, 125 g ai/ha, scale 0 to 100 (0 no effect, 100 complete control)
[10] = 125 g ai/ha, scale 0 to 100 (0 no effect, 100 complete control)
[11] = 125 g ai/ha, visual rating, 0 no effect, 100 complete control, approximately 10 days, preemergence
[12] = Postemergence, 125 g ai/ha, 0 no effect, 100 complete control

## O=C1NCC(c2ccc(F)cc2)C1C(=O)Nc1cccc(F)c1F (racemic) [Compound 119]
lambsquarters; [3]
  Plant response rating, Lambsquarters: 5
lambsquarters; [4]
  Plant response rating, Lambsquarters: 50
lambsquarters; [5]
  Plant response rating, Lambsquarters: 75
lambsquarters; [6]
  Plant response rating, Lambsquarters: 70
lambsquarters; [7]
  Lambsquarters plant response rating: 25
lambsquarters; [8]
  Plant response rating, Lambsquarters: 60
lambsquarters; [9]
  Plant response rating, Lambsquarters: 85
lambsquarters; Preemergence, 250 g ai/ha
  Plant response rating (scale of 0 to 100), Lambsquarters: 85
velvetleaf; [3]
  Plant response rating, Velvetleaf: 0
velvetleaf; [4]
  Plant response rating, Velvetleaf: 0
velvetleaf; [5]
  Plant response rating, Velvetleaf: 15
velvetleaf; [6]
  Plant response rating, Velvetleaf: 20
velvetleaf; [7]
  Velvetleaf plant response rating: 0
velvetleaf; [8]
  Plant response rating, Velvetleaf: 15
velvetleaf; [9]
  Plant response rating, Velvetleaf: 40
velvetleaf; Preemergence, 250 g ai/ha
  Plant response rating (scale of 0 to 100), Velvetleaf: 50
crabgrass, large; [3]
  Plant response rating, Crabgrass, Large: 55
crabgrass, large; [4]
  Plant response rating, Crabgrass, Large: 65
crabgrass, large; [5]
  Plant response rating, Crabgrass, Large: 80
crabgrass, large; [6]
  Plant response rating, Crabgrass, Large: 90
crabgrass, large; [7]
  Crabgrass, Large plant response rating: 98
crabgrass, large; [8]
  Plant response rating, Crabgrass, Large: 98
crabgrass, large; [9]
  Plant response rating, Crabgrass, Large: 100
crabgrass, large; Preemergence, 250 g ai/ha
  Plant response rating (scale of 0 to 100), Crabgrass, Large: 100
oat, wild; 31 g ai/ha, scale 0 to 100 (0 no effect, 100 complete control)
  Plant response rating, Oat, Wild: 0
oat, wild; 62 g ai/ha, scale 0 (no effect) to 100 (complete control)
  Plant response rating, Oat, Wild: 0
oat, wild; [10]
  Plant response rating, Oat, Wild: 0
oat, wild; 250 g ai/ha, scale 0 to 100 (0 no effect, 100 complete control)
  Plant response rating, Oat, Wild: 0
galium; 31 g ai/ha, scale 0 to 100, 0 is no effect and 100 is complete control
  Galium plant response rating: 80
galium; 62 g ai/ha, scale 0 to 100
  Plant response rating, Galium: 80
galium; [10]
  Plant response rating, Galium: 85
galium; 250 g ai/ha
  Plant response rating (scale of 0 to 100), Galium: 90
foxtail, giant; [3]
  Plant response rating, Foxtail, Giant: 10
foxtail, giant; [4]
  Plant response rating, Foxtail, Giant: 25
foxtail, giant; [5]
  Plant response rating, Foxtail, Giant: 85
foxtail, giant; [6]
  Plant response rating, Foxtail, Giant: 90
foxtail, giant; [7]
  Foxtail, Giant plant response rating: 90
foxtail, giant; [8]
  Plant response rating, Foxtail, Giant: 90
foxtail, giant; [9]
  Plant response rating, Foxtail, Giant: 98
foxtail, giant; Preemergence, 250 g ai/ha
  Plant response rating (scale of 0 to 100), Foxtail, Giant: 98
pigweed; [11]
  Plant response rating, Pigweed: 30
pigweed; [12]
  Plant response rating, Pigweed: 30
pigweed; Postemergence, 500 g ai/ha
  Pigweed plant response rating (0 to 100 scale, 0 is no effect, 100 is complete control): 30
pigweed; preemergence, 500 g ai/ha
  Plant response rating, Pigweed: 40
waterhemp; [3]
  Plant response rating, Waterhemp: 0
waterhemp; [4]
  Plant response rating, Waterhemp: 0
waterhemp; [5]
  Plant response rating, Waterhemp: 0
waterhemp; [6]
  Plant response rating, Waterhemp: 40
waterhemp; [7]
  Waterhemp plant response rating: 20
waterhemp; [8]
  Plant response rating, Waterhemp: 65
waterhemp; [9]
  Plant response rating, Waterhemp: 70
waterhemp; Preemergence, 250 g ai/ha
  Plant response rating (scale of 0 to 100), Waterhemp: 80
Barnyardgrass [1]; 125 g ai/ha, visual rating, 0 to 100 scale, 0 no effect, 100 complete control, approximately 10 days, preemergence
  Plant response rating, Barnyardgrass: 90
Barnyardgrass [1]; Postemergence, 125 g ai/ha, 0 to 100 scale, 0 no effect, 100 complete control
  Plant response rating, Barnyardgrass: 90
Barnyardgrass [1]; Postemergence, 500 g ai/ha, 0 to 100 scale (0 no effect, 100 complete control)
  Plant response rating, Barnyardgrass: 90
Barnyardgrass [1]; preemergence, 500 g ai/ha, 0 to 100 scale (0 no effect, 100 complete control)
  Plant response rating, Barnyardgrass: 90
morningglory; [3]
  Plant response rating, Morningglory: 0
morningglory; [4]
  Plant response rating, Morningglory: 0
morningglory; [5]
  Plant response rating, Morningglory: 5
morningglory; [6]
  Plant response rating, Morningglory: 5
morningglory; [7]
  Morningglory plant response rating: 0
morningglory; [8]
  Plant response rating, Morningglory: 0
morningglory; [9]
  Plant response rating, Morningglory: 35
morningglory; Preemergence, 250 g ai/ha
  Plant response rating (scale of 0 to 100), Morningglory: 35
Giant foxtail; [11]
  Plant response rating, Foxtail, Giant: 90
Giant foxtail; [12]
  Plant response rating, Foxtail, Giant: 90
Giant foxtail; Postemergence, 500 g ai/ha
  Foxtail, Giant plant response rating (0 to 100 scale, 0 is no effect, 100 is complete control): 90
Giant foxtail; preemergence, 500 g ai/ha
  Plant response rating, Foxtail, Giant: 90
Barnyardgrass [2]; [3]
  Plant response rating, Barnyardgrass: 25
Barnyardgrass [2]; [4]
  Plant response rating, Barnyardgrass: 40
Barnyardgrass [2]; [5]
  Plant response rating, Barnyardgrass: 65
Barnyardgrass [2]; [6]
  Plant response rating, Barnyardgrass: 80
Barnyardgrass [2]; [7]
  Barnyardgrass plant response rating: 80
Barnyardgrass [2]; [8]
  Plant response rating, Barnyardgrass: 90
Barnyardgrass [2]; [9]
  Plant response rating, Barnyardgrass: 95
Barnyardgrass [2]; Preemergence, 250 g ai/ha
  Plant response rating (scale of 0 to 100; 0 is no effect, 100 is complete control), Barnyardgrass: 98
